Source: patent US10351530B2, “Arylcyclohexyl pyrazoles as NRF2 regulators” (GlaxoSmithKline Intellectual Property Development Limited, priority 2015, dated 2019)

Experiments:
NRF2/Keap1 = biological target: T1, NRF2/Keap1 (Homo sapiens, UniProt Q14145); experiment: NRF2-Keap1 TR-FRET Low Protein Assay (full length NRF2 and full length Keap1); type: binding; conditions: low protein: 1.25 nM Keap1 FlagHis, 2.5 nM biotin-NRF2 added
T1 construct: full length NRF2 protein and full length Keap1 protein (Keap1 exists a dimer) are used
Excerpt: In the NRF2-Keap1 TR-FRET (time-resolved fluorescence resonance energy transfer) low protein assay, full length NRF2 protein and full length Keap1 protein (Keap1 exists a dimer) are used. The assay detects a compound's ability to displace the binding of Keap1 FlagHis with biotinylated Avi-NRF2 protein. Biotin-NRF2 binds to streptavidin-europium (a component of the detection mix) and Keap1 FlagHis is recognized by anti-Flag APC (allophycocyanin) antibody (also a component of the detection mix). If binding occurs between the two proteins, there will be an energy transfer from the Eu+3 (donor) at 615 nm to the APC (acceptor) at 665 nm. A potential NRF2 inhibitor will cause a reduction in the TR-FRET signal by interfering with the binding of Keap1 to NRF2.
Ten nanoliters of 100× compound dose response curves (serial 3-fold dilutions) in DMSO are stamped using an Echo liquid handling system (Labcyte) into 384-well, low volume, black assay plates (Greiner, #784076), with DMSO in columns 6 and 18. An additional 90 nl DMSO is added to each well, to bring the total volume to 100 nl per well. The top concentration of compound is located in columns 1 and 13, with the serial dilutions going across the row. All reagents are diluted in assay buffer (50 mM Tris, pH 8.0, 5 mM MgCl2, 100 mM NaCl, 0.005% BSA, 1 mM DTT, and 2 mM CHAPS. The BSA, DTT, and CHAPS are added to the assay buffer on the day of assay. Using a Multidrop Combi (Thermo Electron Corporation) equipped with a metal tip dispenser, 5 ul of 1.25 nM Keap1 FlagHis protein is added to all wells of the compound plate, with the exception of the wells in column 18. Wells in column 18 receive 5 ul of assay buffer instead. Plates are centrifuged at 500 rpm for 1 minute, covered with a plate lid, and incubated at 37° C. for 2.25 hours. Plates are then removed from the incubator and allowed to cool to RT for 15 minutes. Five microliters of 2.5 nM biotin-NRF2 protein is then added to all wells of the plates and the plates are spun at 500 rpm for 1 minute, followed by incubating at 4° C. for 1.25 hours. The plates are then allowed to warm to RT for 15 minutes, followed by the addition of 10 ul of detection mix (1 nM Streptavidin Eu+ W1024 and 5 ug/ml mouse anti-DYKDDDDK IgG conjugated to SureLight APC antibody; both from Columbia Biosciences) to all wells. Plates are spun at 500 rpm for 1 minute, incubated for 1 hour at RT, and read on an Envision plate reader using a 320 nm excitation filter and 615 nm and 665 nm emission filters. Compound response (% inhibition) and potency (pIC50) are calculated based on the ratio of the two emissions (665 nm/615 nm) and then the transformed data is normalized against controls in the assay (control 1=1% DMSO in the presence of NRF2 and Keap1 protein and control 2=1% DMSO in the presence of only the NRF2 protein). Data analysis is handled using the software package Abase XE (Surrey, United Kingdom). The % inhibition values are calculated from the ratio (transformed) data by the equation: 100−(100*(compound response-average control 2)/(average control 1−average control 2)). For calculation of pIC50s, Abase XE uses a four parameter equation.

[1] = tested on: NQO1 specific enzyme activity in BEAS-2B cells; experiment: BEAS-2B NQO1 MTT Assay; type: cell-based; conditions: NQO1 specific activity induction
Summary of the method: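 BEAS-2B cells exposed to compound for 48 h at 37 °C, 5% CO2, then lysed. NQO1 activity in crude lysate read kinetically by MTT cocktail absorbance at 570 nm over 30 min. pEC50 from ΔOD/min versus log concentration, 3-parameter fit.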

T1 sequence (Q14145 whole entry): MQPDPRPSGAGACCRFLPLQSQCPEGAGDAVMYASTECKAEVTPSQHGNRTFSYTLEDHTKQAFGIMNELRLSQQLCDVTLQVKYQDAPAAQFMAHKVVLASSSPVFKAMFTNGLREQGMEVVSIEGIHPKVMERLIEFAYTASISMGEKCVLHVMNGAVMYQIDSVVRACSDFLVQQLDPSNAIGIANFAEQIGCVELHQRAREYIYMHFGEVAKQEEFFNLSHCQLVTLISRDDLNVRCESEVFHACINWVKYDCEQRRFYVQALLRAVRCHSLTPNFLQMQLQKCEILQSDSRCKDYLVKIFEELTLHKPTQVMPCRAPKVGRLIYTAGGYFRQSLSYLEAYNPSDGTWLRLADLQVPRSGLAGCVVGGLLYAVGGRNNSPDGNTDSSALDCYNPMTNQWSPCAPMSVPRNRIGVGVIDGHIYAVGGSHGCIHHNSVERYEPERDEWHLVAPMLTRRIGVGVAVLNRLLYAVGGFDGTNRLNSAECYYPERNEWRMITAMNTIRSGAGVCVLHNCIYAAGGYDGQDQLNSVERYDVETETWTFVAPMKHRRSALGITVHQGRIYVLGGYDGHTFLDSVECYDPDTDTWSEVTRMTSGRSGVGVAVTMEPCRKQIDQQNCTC

Row | IC50 (NRF2/Keap1) [nM] | SMILES | EC50 ([1]; Homo sapiens, BEAS-2B, 48 h) [nM] | EC50 ([1]; 48 hours) [nM]
1 | 10 to 100 | CCCCC1CCCN1C(=O)C1CCCC(c2cccc(-n3ncc(C(=O)O)c3C3CC3)c2)C1 (racemic) [Example 8c, 1-{3-[3-(2-Butylpyrrolidine-1-carbonyl)cyclohexyl]phenyl}-5-cyclopropyl-1H-pyrazole-4-carboxylic Acid] | 100 to 1000 | –
2 | < 10 | CCCC[C@@H]1CCCN1C(=O)[C@H]1CCC[C@@H](c2cccc(-n3ncc(C(=O)O)c3C3CC3)c2)C1 [Example 17f, 1-{3-[(1R,3S)-3-[(2R)-2-Butylpyrrolidine-1-carbonyl]cyclohexyl]phenyl}-5-cyclopropyl-1H-pyrazole-4-carboxylic Acid] | 10 to 100 | –
3 | 10 to 100 | O=C(O)c1cnn(-c2cccc(C3CCCC(C(=O)N4CCCC4C4CC4)C3)c2)c1C1CC1 (racemic) [Example 12, 5-cyclopropyl-1-{3-[3-(2-cyclopropylpyrrolidine-1-carbonyl)cyclohexyl]phenyl}-1H-pyrazole-4-carboxylic Acid] | 100 to 1000 | –
4 | 10 to 100 | CC(C)CCC1CCCN1C(=O)C1CCCC(c2cccc(-n3ncc(C(=O)O)c3C3CC3)c2)C1 (racemic) [Example 11, 5-Cyclopropyl-1-(3-{3-[2-(3-methylbutyl)pyrrolidine-1-carbonyl]cyclohexyl}phenyl)-1H-pyrazole-4-carboxylic Acid] | 100 to 1000 | –
5 | < 10 | CCOC[C@@H]1CCCN1C(=O)C1CCCC(c2cccc(-n3ncc(C(=O)O)c3C3CC3)c2)C1 (single isomer, unassigned) [Example 18g] | – | 100 to 1000

Further lines, the compound ahead of its results:

Row | SMILES | IC50 (NRF2/Keap1) [nM] | EC50 ([1]; Homo sapiens, BEAS-2B, 48 h) [nM] | EC50 ([1]; 48 hours) [nM]
6 | CCCCC1CCCN1C(=O)C1CCCC(c2cccc(-n3ncc(C(=O)O)c3C3CC3c3cn(C)nn3)c2)C1 (stereo not drawn) [Example 42, 1-(3-(3-(2-Butylpyrrolidine-1-carbonyl)cyclohexyl)phenyl)-5-(2-(1-methyl-1H-1,2,3-triazol-4-yl)cyclopropyl)-1H-pyrazole-4-carboxylic Acid] | < 10 | 1000 to 10000 | –
7 | CCCCC1CCCC1N(C)C(=O)C1CCCC(c2cccc(-n3ncc(C(=O)O)c3C3CC3)c2)C1 (stereo not drawn) [Example 41, 1-(3-(3-((2-Butylcyclopentyl)(methyl)carbamoyl)cyclohexyl)phenyl)-5-cyclopropyl-1H-pyrazole-4-carboxylic Acid] | 100 to 1000 | 100 to 1000 | –
8 | Cn1cc(C2CC2c2c(C(=O)O)cnn2-c2cccc([C@H]3CCC[C@H](n4ncc5c4C(C)(C)CC5)C3)c2)nn1 (stereo partly drawn) [Example 40, 1-(3-((1,3-trans)-3-(6,6-Dimethyl-5,6-dihydrocyclopenta[c]pyrazol-1(4H)-yl)cyclohexyl)phenyl)-5-(2-(1-methyl-1H-1,2,3-triazol-4-yl)cyclopropyl)-1H-pyrazole-4-carboxylic Acid] | 10 to 100 | 1000 to 10000 | –
9 | Cn1cc(C2CC2c2c(C(=O)O)cnn2-c2cccc([C@@H]3CCC[C@H](n4ncc5c4C(C)(C)CC5)C3)c2)nn1 (stereo partly drawn) [Example 39, 1-(3-((1R,3S)-3-(6,6-Dimethyl-5,6-dihydrocyclopenta[c]pyrazol-1(4H)-yl)cyclohexyl)phenyl)-5-(2-(1-methyl-1H-1,2,3-triazol-4-yl)cyclopropyl)-1H-pyrazole-4-carboxylic Acid] | < 10 | 100 to 1000 | –
10 | O=C(O)c1cnn(-c2cccc(C3=CC(C(=O)N4CCCCCC4)CCC3)c2)c1C1CC1 (stereo not drawn) [Example 19, 1-(5′-(Azepane-1-carbonyl)-2′,3′,4′,5′-tetrahydro-[1,1′-biphenyl]-3-yl)-5-cyclopropyl-1H-pyrazole-4-carboxylic Acid] | 100 to 1000 | 1000 to 10000 | –
11 | CC1(C)CCc2cnn([C@@H]3CCC[C@@H](c4cccc(-n5ncc(C(=O)O)c5C5CC5)c4)C3)c21 (racemic) [Example 23, 5-Cyclopropyl-1-(3-(t-3-(6,6-dimethyl-5,6-dihydrocyclopenta[c]pyrazol-1(4H)-yl)cyclohexyl)phenyl)-1H-pyrazole-4-carboxylic Acid] | 1000 to 10000 | 100 to 1000 | –
12 | CCCCC1CCc2cnn([C@@H]3CCC[C@@H](c4cccc(-n5ncc(C(=O)O)c5C5CC5)c4)C3)c21 (stereo partly drawn) [Example 38, 1-(3-((1,3-trans)-3-(6-Butyl-5,6-dihydrocyclopenta[c]pyrazol-1(4H)-yl)cyclohexyl)phenyl)-5-cyclopropyl-1H-pyrazole-4-carboxylic Acid] | 10000 to 100000 | – | 100 to 1000
